Assay results as given in ChEMBL document CHEMBL4507299, “Data for DCP probe PF-04554878” (2021).

Tests used:
[1] = molecular target: Glycogen synthase kinase-3 beta (Homo sapiens, UniProt P49841); assay: GSK3beta Invitrogen kinase activity assay
[2] = molecular target: Serine/threonine-protein kinase 26 (Homo sapiens) (UniProt Q9P289); assay: MASK Invitrogen kinase activity assay; conditions: Compound concentration 1.0 uM
[3] = molecular target: T1, Serine/threonine-protein kinase Chk1 (Homo sapiens) (UniProt O14757); assay: CHK1 Invitrogen kinase activity assay; conditions: Compound concentration 1.0 uM
T1 sequence (whole entry): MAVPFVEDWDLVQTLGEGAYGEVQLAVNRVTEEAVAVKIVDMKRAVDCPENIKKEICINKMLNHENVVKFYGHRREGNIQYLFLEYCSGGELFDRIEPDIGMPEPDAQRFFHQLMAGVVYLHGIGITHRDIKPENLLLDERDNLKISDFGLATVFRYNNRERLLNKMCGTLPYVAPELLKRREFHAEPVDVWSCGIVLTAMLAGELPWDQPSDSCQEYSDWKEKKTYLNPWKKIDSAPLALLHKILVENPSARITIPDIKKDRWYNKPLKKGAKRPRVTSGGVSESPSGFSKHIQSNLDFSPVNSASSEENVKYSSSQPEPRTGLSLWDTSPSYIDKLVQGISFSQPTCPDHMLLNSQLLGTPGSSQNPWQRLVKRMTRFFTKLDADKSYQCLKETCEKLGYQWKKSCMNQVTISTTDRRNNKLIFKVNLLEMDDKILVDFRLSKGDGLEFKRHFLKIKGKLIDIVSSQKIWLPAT

[4] = molecular target: T2, D(1A) dopamine receptor (Homo sapiens, UniProt P21728); assay: GPCRScan assay: inhibition of D1; design: radioligand conc. used [nm] 0.6 – 1.3, parental cells HEKT
[5] = molecular target: Tyrosine-protein kinase Lck (Homo sapiens) (UniProt P06239); assay: LCK Invitrogen kinase activity assay; conditions: Compound concentration 1.0 uM
[6] = molecular target: Dual specificity protein kinase CLK1 (Homo sapiens, UniProt P49759); assay: CLK1 Invitrogen kinase activity assay
[7] = molecular target: T3, Serine/threonine-protein kinase TAO3 (Homo sapiens) (UniProt Q9H2K8); assay: TAOK3 Invitrogen kinase activity assay; conditions: Compound concentration 1.0 uM
T3 sequence (whole entry): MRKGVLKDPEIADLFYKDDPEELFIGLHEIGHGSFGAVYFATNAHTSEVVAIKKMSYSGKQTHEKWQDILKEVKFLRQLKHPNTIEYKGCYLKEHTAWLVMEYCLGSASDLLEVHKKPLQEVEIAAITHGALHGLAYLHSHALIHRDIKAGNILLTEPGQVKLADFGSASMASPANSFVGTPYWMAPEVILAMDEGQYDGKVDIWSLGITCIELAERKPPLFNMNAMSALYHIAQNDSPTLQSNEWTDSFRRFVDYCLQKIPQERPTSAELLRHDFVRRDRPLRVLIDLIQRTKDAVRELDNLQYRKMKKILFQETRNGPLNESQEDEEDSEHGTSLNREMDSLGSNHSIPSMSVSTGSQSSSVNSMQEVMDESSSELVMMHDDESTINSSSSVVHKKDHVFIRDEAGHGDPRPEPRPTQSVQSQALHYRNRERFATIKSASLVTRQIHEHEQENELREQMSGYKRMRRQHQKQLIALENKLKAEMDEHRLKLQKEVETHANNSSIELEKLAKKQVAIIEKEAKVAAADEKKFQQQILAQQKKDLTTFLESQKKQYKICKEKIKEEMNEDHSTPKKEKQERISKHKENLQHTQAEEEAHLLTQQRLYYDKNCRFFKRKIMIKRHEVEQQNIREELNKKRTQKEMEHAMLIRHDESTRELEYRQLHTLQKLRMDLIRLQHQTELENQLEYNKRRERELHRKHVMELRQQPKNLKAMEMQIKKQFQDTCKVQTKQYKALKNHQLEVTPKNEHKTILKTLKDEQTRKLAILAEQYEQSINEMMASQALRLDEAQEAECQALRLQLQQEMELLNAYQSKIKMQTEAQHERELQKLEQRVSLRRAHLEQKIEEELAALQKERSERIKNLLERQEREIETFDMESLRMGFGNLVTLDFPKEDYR

[8] = molecular target: Ephrin type-A receptor 2 (Homo sapiens) (UniProt P29317); assay: ECK Invitrogen kinase activity assay; conditions: Compound concentration 1.0 uM
[9] = molecular target: Protein kinase C zeta type (Homo sapiens) (UniProt Q05513); assay: PKCzeta Invitrogen kinase activity assay; conditions: Compound concentration 1.0 uM
[10] = molecular target: T4, Inhibitor of nuclear factor kappa-B kinase subunit epsilon (Homo sapiens) (UniProt Q14164); assay: IKKi Invitrogen kinase activity assay; conditions: Compound concentration 1.0 uM
T4 sequence (whole entry): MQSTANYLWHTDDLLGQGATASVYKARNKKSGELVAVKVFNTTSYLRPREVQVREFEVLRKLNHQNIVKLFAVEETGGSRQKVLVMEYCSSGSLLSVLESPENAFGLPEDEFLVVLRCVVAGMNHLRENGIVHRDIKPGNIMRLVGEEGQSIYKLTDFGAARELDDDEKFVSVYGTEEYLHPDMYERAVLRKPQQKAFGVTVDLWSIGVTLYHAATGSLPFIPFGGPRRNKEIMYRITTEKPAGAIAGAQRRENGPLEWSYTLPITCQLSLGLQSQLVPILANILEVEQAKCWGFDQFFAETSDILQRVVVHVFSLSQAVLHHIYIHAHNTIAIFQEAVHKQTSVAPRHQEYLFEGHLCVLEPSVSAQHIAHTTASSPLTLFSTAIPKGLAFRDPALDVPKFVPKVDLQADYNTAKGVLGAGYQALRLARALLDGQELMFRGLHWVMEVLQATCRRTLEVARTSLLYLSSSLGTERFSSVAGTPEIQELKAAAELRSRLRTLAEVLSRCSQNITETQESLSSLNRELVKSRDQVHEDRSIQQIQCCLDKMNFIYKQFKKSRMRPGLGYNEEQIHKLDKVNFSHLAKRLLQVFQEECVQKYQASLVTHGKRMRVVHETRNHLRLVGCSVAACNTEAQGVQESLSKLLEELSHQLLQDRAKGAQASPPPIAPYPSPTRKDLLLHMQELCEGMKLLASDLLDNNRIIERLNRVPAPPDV

[11] = molecular target: Fibroblast growth factor receptor 1 (Homo sapiens) (UniProt P11362); assay: FGFR1 Invitrogen kinase activity assay; conditions: Compound concentration 1.0 uM
[12] = molecular target: RAC-alpha serine/threonine-protein kinase (Homo sapiens) (UniProt P31749); assay: AKT1 Invitrogen kinase activity assay; conditions: Compound concentration 1.0 uM
[13] = molecular target: Serine/threonine-protein kinase MARK1 (Homo sapiens, UniProt Q9P0L2); assay: MARK1 Invitrogen kinase activity assay
[14] = molecular target: T2, D(1A) dopamine receptor; conditions: Compound concentration 10.0 uM
[15] = molecular target: Sigma intracellular receptor 2 (Homo sapiens, UniProt Q5BJF2); assay: GPCRScan assay: inhibition of Sigma 2; design: radioligand conc. used [nm] 5.0, parental cells HEKT
[16] = molecular target: Muscarinic acetylcholine receptor M4 (Homo sapiens) (UniProt P08173); conditions: Compound concentration 10.0 uM
[17] = molecular target: Beta-2 adrenergic receptor (Homo sapiens) (UniProt P07550); conditions: Compound concentration 10.0 uM
Beta-2 adrenergic receptor (Homo sapiens), sequence (P07550 whole entry, looked up): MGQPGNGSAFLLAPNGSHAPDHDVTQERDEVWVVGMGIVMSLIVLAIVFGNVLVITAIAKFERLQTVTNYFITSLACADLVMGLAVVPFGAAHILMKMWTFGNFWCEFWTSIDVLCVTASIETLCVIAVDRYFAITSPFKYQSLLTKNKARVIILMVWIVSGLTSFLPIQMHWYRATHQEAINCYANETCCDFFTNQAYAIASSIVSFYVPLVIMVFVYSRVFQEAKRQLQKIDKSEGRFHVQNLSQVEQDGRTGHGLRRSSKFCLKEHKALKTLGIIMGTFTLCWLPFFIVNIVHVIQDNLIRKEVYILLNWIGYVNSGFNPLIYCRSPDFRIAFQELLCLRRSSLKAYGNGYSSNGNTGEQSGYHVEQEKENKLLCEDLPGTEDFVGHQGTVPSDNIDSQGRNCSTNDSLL

T2 sequence (P21728 whole entry): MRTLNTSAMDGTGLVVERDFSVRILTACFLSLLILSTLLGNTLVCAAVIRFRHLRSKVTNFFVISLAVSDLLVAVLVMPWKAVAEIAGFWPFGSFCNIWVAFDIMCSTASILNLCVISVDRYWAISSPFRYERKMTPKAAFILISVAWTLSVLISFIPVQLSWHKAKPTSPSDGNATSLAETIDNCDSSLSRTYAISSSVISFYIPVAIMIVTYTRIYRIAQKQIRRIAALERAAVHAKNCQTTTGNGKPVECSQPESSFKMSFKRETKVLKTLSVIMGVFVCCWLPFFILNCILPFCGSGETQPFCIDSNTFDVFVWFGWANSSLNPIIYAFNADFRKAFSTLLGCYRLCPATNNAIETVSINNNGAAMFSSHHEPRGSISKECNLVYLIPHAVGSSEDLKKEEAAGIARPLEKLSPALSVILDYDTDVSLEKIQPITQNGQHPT
Muscarinic acetylcholine receptor M4 (Homo sapiens), sequence (P08173 whole entry): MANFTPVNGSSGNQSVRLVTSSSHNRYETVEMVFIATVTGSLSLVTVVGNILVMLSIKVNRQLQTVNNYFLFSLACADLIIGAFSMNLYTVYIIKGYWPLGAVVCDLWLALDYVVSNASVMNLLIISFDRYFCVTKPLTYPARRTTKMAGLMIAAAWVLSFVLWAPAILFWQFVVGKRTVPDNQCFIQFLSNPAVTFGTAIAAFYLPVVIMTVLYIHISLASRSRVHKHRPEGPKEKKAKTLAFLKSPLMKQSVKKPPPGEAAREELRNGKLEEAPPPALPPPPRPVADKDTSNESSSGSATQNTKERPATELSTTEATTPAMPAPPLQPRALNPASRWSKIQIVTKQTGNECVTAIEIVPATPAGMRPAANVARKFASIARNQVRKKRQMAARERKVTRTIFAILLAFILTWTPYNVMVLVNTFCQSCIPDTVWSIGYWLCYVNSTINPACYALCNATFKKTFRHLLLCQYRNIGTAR
Ephrin type-A receptor 2 (Homo sapiens), sequence (P29317 whole entry): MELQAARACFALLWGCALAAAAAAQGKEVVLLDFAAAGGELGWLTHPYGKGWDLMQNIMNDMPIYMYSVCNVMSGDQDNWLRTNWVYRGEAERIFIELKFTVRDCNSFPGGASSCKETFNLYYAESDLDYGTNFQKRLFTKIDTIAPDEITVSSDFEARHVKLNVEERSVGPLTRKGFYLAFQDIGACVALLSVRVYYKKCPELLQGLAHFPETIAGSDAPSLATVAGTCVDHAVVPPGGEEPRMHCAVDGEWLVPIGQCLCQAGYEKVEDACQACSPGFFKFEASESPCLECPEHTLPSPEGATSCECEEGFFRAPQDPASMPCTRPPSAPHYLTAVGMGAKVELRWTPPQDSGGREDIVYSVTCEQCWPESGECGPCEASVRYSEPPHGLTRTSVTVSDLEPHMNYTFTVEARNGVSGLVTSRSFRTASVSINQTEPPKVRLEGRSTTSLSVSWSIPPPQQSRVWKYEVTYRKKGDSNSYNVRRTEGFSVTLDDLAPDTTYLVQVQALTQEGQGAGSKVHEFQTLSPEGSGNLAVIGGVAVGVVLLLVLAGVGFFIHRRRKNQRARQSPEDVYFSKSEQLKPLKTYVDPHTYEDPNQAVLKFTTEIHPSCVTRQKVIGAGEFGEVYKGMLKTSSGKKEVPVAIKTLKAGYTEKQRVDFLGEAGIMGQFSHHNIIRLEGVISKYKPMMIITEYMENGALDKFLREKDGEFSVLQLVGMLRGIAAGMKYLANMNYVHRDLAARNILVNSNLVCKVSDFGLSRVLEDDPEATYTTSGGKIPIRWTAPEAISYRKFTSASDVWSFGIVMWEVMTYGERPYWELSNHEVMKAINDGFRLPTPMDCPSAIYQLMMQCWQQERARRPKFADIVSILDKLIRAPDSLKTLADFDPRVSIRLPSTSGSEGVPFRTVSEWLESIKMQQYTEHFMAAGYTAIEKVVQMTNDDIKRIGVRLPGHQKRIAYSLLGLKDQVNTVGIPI
Tyrosine-protein kinase Lck (Homo sapiens), sequence (P06239 2-509 limits assumed): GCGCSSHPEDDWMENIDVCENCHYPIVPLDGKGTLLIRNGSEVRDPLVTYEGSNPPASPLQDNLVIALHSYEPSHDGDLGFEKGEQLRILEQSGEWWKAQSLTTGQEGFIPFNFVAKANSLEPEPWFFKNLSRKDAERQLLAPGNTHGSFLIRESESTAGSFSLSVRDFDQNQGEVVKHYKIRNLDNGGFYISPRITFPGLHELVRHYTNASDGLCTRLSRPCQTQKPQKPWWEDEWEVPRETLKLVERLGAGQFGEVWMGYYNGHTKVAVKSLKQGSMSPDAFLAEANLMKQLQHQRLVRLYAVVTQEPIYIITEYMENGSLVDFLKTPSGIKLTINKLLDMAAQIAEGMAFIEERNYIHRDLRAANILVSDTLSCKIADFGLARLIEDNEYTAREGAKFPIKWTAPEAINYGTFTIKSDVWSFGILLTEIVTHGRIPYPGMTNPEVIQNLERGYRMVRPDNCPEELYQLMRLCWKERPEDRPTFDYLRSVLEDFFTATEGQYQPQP
Sigma intracellular receptor 2, sequence (Q5BJF2 whole entry): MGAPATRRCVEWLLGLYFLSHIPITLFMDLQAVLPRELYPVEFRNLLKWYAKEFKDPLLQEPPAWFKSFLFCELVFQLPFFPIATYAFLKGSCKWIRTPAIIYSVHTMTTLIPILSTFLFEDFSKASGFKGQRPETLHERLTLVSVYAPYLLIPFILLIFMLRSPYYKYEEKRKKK
Serine/threonine-protein kinase 26 (Homo sapiens), sequence (Q9P289 2-416 limits assumed): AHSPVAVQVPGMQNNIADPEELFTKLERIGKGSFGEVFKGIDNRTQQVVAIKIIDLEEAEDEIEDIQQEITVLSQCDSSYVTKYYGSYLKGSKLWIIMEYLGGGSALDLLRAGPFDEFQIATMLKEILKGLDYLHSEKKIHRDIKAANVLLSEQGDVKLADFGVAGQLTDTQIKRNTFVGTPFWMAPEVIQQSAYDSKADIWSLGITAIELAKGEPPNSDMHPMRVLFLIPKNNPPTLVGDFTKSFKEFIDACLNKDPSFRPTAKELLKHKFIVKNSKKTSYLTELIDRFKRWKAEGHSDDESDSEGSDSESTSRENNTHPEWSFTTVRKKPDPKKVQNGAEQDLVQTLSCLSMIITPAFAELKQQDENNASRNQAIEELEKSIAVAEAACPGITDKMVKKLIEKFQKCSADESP
Protein kinase C zeta type (Homo sapiens), sequence (Q05513 whole entry): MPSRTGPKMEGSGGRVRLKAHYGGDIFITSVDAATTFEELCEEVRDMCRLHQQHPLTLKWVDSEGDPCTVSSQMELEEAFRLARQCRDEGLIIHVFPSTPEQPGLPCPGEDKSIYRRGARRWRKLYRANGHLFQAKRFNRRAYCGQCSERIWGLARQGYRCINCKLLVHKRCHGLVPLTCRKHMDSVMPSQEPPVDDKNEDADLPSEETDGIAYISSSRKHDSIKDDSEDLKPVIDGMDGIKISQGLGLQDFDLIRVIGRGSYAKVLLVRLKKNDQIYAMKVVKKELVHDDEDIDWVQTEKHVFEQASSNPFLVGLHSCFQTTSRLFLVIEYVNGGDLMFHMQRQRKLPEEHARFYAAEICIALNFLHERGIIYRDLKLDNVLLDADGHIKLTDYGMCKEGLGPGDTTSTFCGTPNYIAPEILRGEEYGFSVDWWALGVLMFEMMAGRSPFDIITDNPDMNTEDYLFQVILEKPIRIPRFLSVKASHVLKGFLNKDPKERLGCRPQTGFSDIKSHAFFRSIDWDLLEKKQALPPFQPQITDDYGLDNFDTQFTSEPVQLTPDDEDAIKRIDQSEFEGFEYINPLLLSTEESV
Fibroblast growth factor receptor 1 (Homo sapiens), sequence (P11362 22-822 limits assumed): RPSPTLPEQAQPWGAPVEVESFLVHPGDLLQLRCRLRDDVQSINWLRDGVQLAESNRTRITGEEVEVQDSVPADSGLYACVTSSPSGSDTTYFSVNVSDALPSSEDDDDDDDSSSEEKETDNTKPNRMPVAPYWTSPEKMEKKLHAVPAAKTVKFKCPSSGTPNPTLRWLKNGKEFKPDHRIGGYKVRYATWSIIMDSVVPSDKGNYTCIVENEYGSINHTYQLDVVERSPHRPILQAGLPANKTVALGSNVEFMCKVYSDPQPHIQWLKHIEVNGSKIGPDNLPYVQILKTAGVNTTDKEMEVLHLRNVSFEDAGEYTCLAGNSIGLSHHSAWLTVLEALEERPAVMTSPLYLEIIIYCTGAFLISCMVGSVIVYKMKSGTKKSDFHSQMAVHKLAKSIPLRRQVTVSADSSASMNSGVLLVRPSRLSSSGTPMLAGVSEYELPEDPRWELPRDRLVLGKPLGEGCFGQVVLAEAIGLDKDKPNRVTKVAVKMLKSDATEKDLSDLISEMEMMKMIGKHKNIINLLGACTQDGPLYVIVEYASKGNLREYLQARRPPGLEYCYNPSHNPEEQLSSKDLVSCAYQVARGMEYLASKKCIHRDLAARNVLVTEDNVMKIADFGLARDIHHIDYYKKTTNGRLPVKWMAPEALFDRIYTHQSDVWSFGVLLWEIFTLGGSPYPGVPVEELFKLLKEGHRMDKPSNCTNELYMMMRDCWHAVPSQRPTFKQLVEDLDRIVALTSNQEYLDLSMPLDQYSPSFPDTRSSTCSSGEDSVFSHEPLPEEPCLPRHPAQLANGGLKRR

SMILES	IC50 [1]	inhibition ([1]; Compound concentration 1.0 uM)	inhibition [2]	inhibition [3]	Ki [4]	inhibition [5]	IC50 [6]	inhibition ([6]; Compound concentration 1.0 uM)	inhibition [7]	inhibition [8]	inhibition [9]	inhibition [10]	inhibition [11]	inhibition [12]	IC50 [13]	inhibition ([13]; Compound concentration 1.0 uM)	inhibition [14]	Ki [15]	inhibition [16]	inhibition [17]
CNC(=O)c1ccc(Nc2ncc(C(F)(F)F)c(NCc3nccnc3N(C)S(C)(=O)=O)n2)cc1 [DEFACTINIB]	416 nM	83%	46%	23%	10000 nM	39%	250 nM	99%	66%	18%	10%	8%	64%	4%	448 nM	81%	–	–	–	–
CN(c1ccnc(CNc2nc(Nc3ccc4c(c3)CC(=O)N4)ncc2C(F)(F)F)n1)S(C)(=O)=O [PF-00911705]	–	–	–	–	–	–	–	–	–	–	–	–	–	–	–	–	0.76%	2120 nM	8.94%	15.3%
